Assay results: patent US6589950B1, “Purine derivatives inhibitors of tyrosine protein kinase SYK” (Novartis AG, priority 1999, dated 2003)
Where a name gives a salt, the structure may show the parent alone.

tested on: not given; assay: not given; settings: not given

melting point [°C] | SMILES
314 to 318 | CC(=O)N(C)c1ccc(Nc2nc(NC3CCC3)c3nc[nH]c3n2)cc1 (as salt: HCl) [Example 6]
201.9 to 203.7 | c1nc2c(NC3CC3)nc(Nc3ccc(N4CCOCC4)cc3)nc2[nH]1 [Example 5]
312 to 314 | c1ccc(Nc2nc(NC3CCC3)c3[nH]cnc3n2)cc1 [Example 121, 6-Cyclobutylamino-2-anilinopurine]
273 to 274 | CC(=O)N(C)c1ccc(Nc2nc(NC(C)(C)C)c3nc[nH]c3n2)cc1 [Example 138]

target: syk kinase (Homo sapiens, UniProt P43405); assay: syk kinase peptide phosphorylation scintillation proximity assay (SPA); type: biochemical; settings: biotin-EDPDYEWPSA substrate, 33P-ATP, SPA beads, room temperature 30 minutes; read-out: IC50 (concentration at which 50% inhibition of syk kinase phosphorylation occurs)
Source text: Compounds of formula I in free or salt form are useful as pharmaceuticals. Accordingly the invention also provides a compound of formula I in free or pharmaceutically acceptable salt form for use as a pharmaceutical. The compounds of formula I in free or pharmaceutically acceptable salt form, hereinafter referred to alternatively as “agents of the invention”, inhibit the activity of the tyrosine protein kinase syk, which is an activator of pro-inflammatory cells driving an allergic response.
In this assay the effect of an agent of the invention on the phosphorylation of a peptide by syk kinase is determined. The phosphate is transferred from the terminal phosphate of adenosine triphosphate (ATP) to the biotin-modified peptide biotin-EDPDYEWPSA (available from Genosys) which is a known specific substrate for syk. When ^33P-phosphorylated peptide binds to streptavidin-polyvinyltoluene (PVT) Scintillation Proximity Assay (SPA) beads (available from Amersham), the emitted β-particles excite the fluorophore in the beads and produce light.
To the wells of an Optiplate (Canberra Packard) are added (i) the compound under test in DMSO/distilled water (10 μl), (ii) 20 μl of a composition formed by mixing 1 mM biotin-EDPDYEWPSA (5.5 μl), 300 μM ATP (18.3 μl), and ^33P-ATP in sufficient amount to add 0.1 μCi ^33P-ATP per well (1.1 μl on the day of production) and making up the volume to 2.2 ml with a buffer (Buffer A) prepared by dissolving tris-base (0.36 g) in distilled water (80 ml), adjusting the pH to 7.5 with 1M hydrochloric acid, adding 1M aqueous MgCl2 (1.5 ml), 50 mM aqueous sodium orthovanadate (30 μl) and 1M aqueous dithiothrietol (150 μl), and making the volume up to 120 ml with distilled water, (iii) 0.5% w/v syk kinase in Buffer A (20 μl). The plate is incubated at room temperature for 30 minutes with shaking, the reaction is then terminated by addition to all wells of 150 μl of a mixture prepared by reconstituting 500 mg Streptavidin-PVT SPA beads in 373 ml of Tris-buffered saline containing 673.6 g cesium chloride, 20 ml 0.5M EDTA and 27.5 mg ATP (disodium salt) per litre. The plate is again incubated at room temperature for 30 minutes with shaking, then sealed using Top Seal-S (Canberra Packard) according to the manufacturer's instructions and left to stand at room temperature for 1 hour. The resulting scintillations are counted using a Packard TopCount, each well being counted for 1 minute.
The procedure is repeated for different concentrations of test compound selected to cover the range of 0% to 100% inhibition and the concentration at which 50% inhibition of syk kinase phosphorylation occurs (IC50) for each compound is determined from concentration-inhibition curves in a conventional manner.

IC50 [nM] | SMILES
5 | CC(C)(C)OC(=O)Nc1ccc(Nc2nc(NC3CC3)c3nc[nH]c3n2)cc1 [Example 3]
9 | c1nc2c(NC3CC3)nc(Nc3ccc(N4CCOCC4)cc3)nc2[nH]1 [Example 5]
10 | CC(=O)N(C)c1ccc(Nc2nc(NC3CCC3)c3nc[nH]c3n2)cc1 [Example 6]
5 | CN1CCN(c2ccc(Nc3nc(NC4CC4)c4nc[nH]c4n3)cc2)CC1 [Example 102]
2 | CC(=O)N1CCN(c2ccc(Nc3nc(NC4CC4)c4nc[nH]c4n3)cc2)CC1 [Example 103]
3.6 | CC(=O)N1CCN(c2ccc(Nc3nc(NC4CCC4)c4nc[nH]c4n3)cc2)CC1 [Example 104]
14 | CC(=O)N(C)c1ccc(Nc2nc(NC(C)(C)C)c3nc[nH]c3n2)cc1 [Example 138]
10 | CCN(C(C)=O)c1ccc(Nc2nc(NC(C)C)c3nc[nH]c3n2)cc1 [Example 170]
